#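 Cultured in 96-well plates, cells were exposed to test compound for 48 hours across five concentrations. TGI is the concentration that stops growth completely.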 *1 amine or outer side, *2 acyl side, *3 side chain or, on linkers, in order; H or OH if unused. Where a SMILES comes first, the peptide text is derived from it. Bridges are numbered along the chain shown (N, C = ends). [ ]: non-standard residue; d: D form. The star is where a group is joined. ξ: configuration not given here. γ4hArg(2R,3R-(OH)2) = N=C(N)NCCC[C@H](N[*:1])[C@@H](O)[C@@H](O)C(=O)[*:2]; Gln(3S,4R-Me2) = C[C@H]([C@H](N)C(=O)O)[C@@H](C)C(N)=O; X43 = CC(C)C[C@H](C)[C@@H](O)[C@@H](C)C(=O)*; X44 = COC(c1ccc(O)cc1)C(N[*:1])C(=O)[*:2]; NMeQ = CN[C@@H](CCC(N)=O)C(=O)O; Thr(3ξ) = CC(O)[C@H](N)C(=O)O; NMeA = CN[C@@H](C)C(=O)O
# Columns and labels:
# Test in all cases: NCI tumour cell line growth inhibition, 48 h
# [1] = system: COLO 205 colon
# [2] = system: SN12C renal
# [3] = system: SF-539 CNS
# [4] = system: TK-10 renal
# [5] = system: CCRF-CEM leukemia
# [6] = system: NCI-H460 lung
# [7] = system: UO-31 renal
# [8] = system: HT29 colon
# [9] = system: UACC-62 melanoma
# [10] = system: SK-MEL-2 melanoma
# [11] = system: IGROV1 ovarian
# [12] = system: HCT-116 colon
# [13] = system: SW-620 colon
# [14] = system: OVCAR-4 ovarian
# [15] = system: SNB-19 CNS
# [16] = system: SK-OV-3 ovarian
# [17] = system: DU-145 prostate
# [18] = system: MDA-MB-435
# [19] = system: SF-295 CNS
# [20] = system: HOP-62 NSCLC
# [21] = system: T-47D breast
# [22] = system: M14 melanoma
# [23] = system: NCI/ADR-RES ovarian
# [24] = system: EKVX NSCLC
# [25] = system: HCT-15 colon
# [26] = system: ACHN renal
# [27] = system: OVCAR-3 ovarian
# [28] = system: HL-60(TB) leukemia
# [29] = system: RPMI-8226 leukemia
# [30] = system: MOLT-4 leukemia
# [31] = system: SK-MEL-5 melanoma
# [32] = system: HOP-92 NSCLC
# [33] = system: MDA-MB-231 breast
# [34] = system: HS 578T breast
# [35] = system: UACC-257 melanoma
# [36] = system: PC-3 prostate
# [37] = system: NCI-H226 lung
# [38] = system: A549 NSCLC
# [39] = system: NCI-H23 lung
# [40] = system: BT-549 breast
# [41] = system: OVCAR-5 ovarian
# [42] = system: HCC-2998 colon
# [43] = system: NCI-H522 lung
# [44] = system: U251 CNS
# [45] = system: OVCAR-8 ovarian
# [46] = system: K-562 leukemia
# [47] = system: 786-0 renal
# [48] = system: SF-268 CNS
# [49] = system: CAKI-1 renal
# [50] = system: KM12 colon
# [51] = system: LOX IMVI melanoma
# [52] = system: RXF 393 renal
# [53] = system: MCF7 breast
# [54] = system: SNB-75 CNS
# [55] = system: SK-MEL-28 melanoma
# [56] = system: A498 renal
compound,measurement,setting,value
C/C(O)=C(/C=N/C(=S)Nc1ccc(S(N)(=O)=O)cc1)C(=O)Nc1ccccc1C,TGI,[1],> 100 µM
same,TGI,[2],> 100 µM
same,TGI,[3],> 100 µM
same,TGI,[4],> 100 µM
same,TGI,[5],65.9 µM
same,TGI,[6],> 100 µM
same,TGI,[7],> 100 µM
same,TGI,[8],> 100 µM
same,TGI,[9],> 100 µM
same,TGI,[10],> 100 µM
same,TGI,[11],> 100 µM
same,TGI,[12],> 100 µM
same,TGI,[13],> 100 µM
same,TGI,[14],> 100 µM
same,TGI,[15],> 100 µM
same,TGI,[16],> 100 µM
same,TGI,[17],> 100 µM
same,TGI,[18],> 100 µM
same,TGI,[19],> 100 µM
same,TGI,[20],> 100 µM
same,TGI,[21],> 100 µM
same,TGI,[22],> 100 µM
same,TGI,[23],> 100 µM
same,TGI,[24],> 100 µM
same,TGI,[25],> 100 µM
same,TGI,[26],> 100 µM
same,TGI,[27],> 100 µM
same,TGI,[28],42.8 µM
same,TGI,[29],97.3 µM
same,TGI,[30],> 100 µM
same,TGI,[31],> 100 µM
same,TGI,[32],> 100 µM
same,TGI,[33],> 100 µM
same,TGI,[34],> 100 µM
same,TGI,[35],> 100 µM
same,TGI,[36],> 100 µM
same,TGI,[37],> 100 µM
same,TGI,[38],> 100 µM
same,TGI,[39],> 100 µM
same,TGI,[40],> 100 µM
same,TGI,[41],> 100 µM
same,TGI,[42],> 100 µM
same,TGI,[43],> 100 µM
same,TGI,[44],> 100 µM
same,TGI,[45],> 100 µM
same,TGI,[46],> 100 µM
same,TGI,[47],> 100 µM
same,TGI,[48],> 100 µM
same,TGI,[49],> 100 µM
same,TGI,[50],> 100 µM
same,TGI,[51],48.8 µM
same,TGI,[52],> 100 µM
same,TGI,[53],> 100 µM
"COC(c1ccc(O)cc1)C1NC(=O)[C@H](CCC(N)=O)N(C)C(=O)[C@H](CC(C)C)NC(=O)[C@@H](CCCN=C(N)N)NC(=O)[C@H](C(C)O)NC(=O)[C@@H](NC(=O)[C@@H](NC(=O)[C@H](O)[C@H](O)[C@H](CCCN=C(N)N)NC(=O)[C@H](C)NC(=O)[C@H](C)[C@H](O)[C@@H](C)CC(C)C)[C@@H](C)[C@@H](C)C(N)=O)[C@@H](C)OC(=O)[C@H](C)N(C)C1=O (stereo partly drawn) (X43-A[γ4hArg(2R,3R-(OH)2)][Gln(3S,4R-Me2)]T[Thr(3ξ)][dR]L[NMeQ][X44][NMeA]; ester 4-C)",TGI,[32],0.614 µM
same,TGI,[35],0.308 µM
same,TGI,[37],0.912 µM
same,TGI,[39],0.201 µM
same,TGI,[40],0.737 µM
ClCCCc1ccccc1C1=NCCc2ccccc21,TGI,[1],52.9 µM
same,TGI,[2],> 100 µM
same,TGI,[3],> 100 µM
same,TGI,[4],> 100 µM
same,TGI,[5],> 100 µM
same,TGI,[6],> 100 µM
same,TGI,[7],> 100 µM
same,TGI,[8],> 100 µM
same,TGI,[9],> 100 µM
same,TGI,[10],> 100 µM
same,TGI,[11],> 100 µM
same,TGI,[12],> 100 µM
same,TGI,[13],> 100 µM
same,TGI,[14],> 100 µM
same,TGI,[15],> 100 µM
same,TGI,[16],> 100 µM
same,TGI,[17],> 100 µM
same,TGI,[18],> 100 µM
same,TGI,[19],> 100 µM
same,TGI,[20],> 100 µM
same,TGI,[21],> 100 µM
same,TGI,[22],> 100 µM
same,TGI,[23],> 100 µM
same,TGI,[24],> 100 µM
same,TGI,[25],> 100 µM
same,TGI,[26],> 100 µM
same,TGI,[27],> 100 µM
same,TGI,[28],> 100 µM
same,TGI,[54],> 100 µM
same,TGI,[29],23.3 µM
same,TGI,[30],> 100 µM
same,TGI,[31],40.5 µM
same,TGI,[32],> 100 µM
same,TGI,[33],> 100 µM
same,TGI,[34],> 100 µM
same,TGI,[35],> 100 µM
same,TGI,[36],> 100 µM
same,TGI,[37],> 100 µM
same,TGI,[38],> 100 µM
same,TGI,[39],> 100 µM
same,TGI,[40],> 100 µM
same,TGI,[55],> 100 µM
same,TGI,[41],> 100 µM
same,TGI,[42],> 100 µM
same,TGI,[56],> 100 µM
same,TGI,[43],> 100 µM
same,TGI,[44],> 100 µM
same,TGI,[45],> 100 µM
same,TGI,[46],> 100 µM
same,TGI,[47],> 100 µM
same,TGI,[48],> 100 µM
same,TGI,[49],> 100 µM
same,TGI,[50],> 100 µM
same,TGI,[52],> 100 µM
same,TGI,[53],> 100 µM

# Source: PubChem BioAssay (NCI)
